Source: patent US20210052492A1, “Cannabinoid Dosing Regime For Psoriasis” (Botanix Pharmaceuticals Ltd., priority 2018, published 2021)

Assay: Skin permeation of CBD in a Franz-type diffusion cell
Format: in vitro ADME
Conditions: 5 ul of 5.0% w/w CBD formulation, 48-hour exposure
Protocol: Dermatomed skin from a single donor was mounted in a Franz-type diffusion cell (0.55 cm^2 receptor fluid exposure surface area) and dosed with 5 ul of CBD formulated in an mixture of a volatile solvent (hexylmethyldisiloxane/polymethylsiloxane—93% w/w), and residual solvent (arlamol E—2% w/w) at a concentration of 5.0% (w/w; 35.5 mg/ml). Following dosing, receptor phase samples were collected at 4, 10, 24 and 48 hours; after which the study was terminated.
The residual formulation was removed by tape stripping and the epidermis and dermis separated by blunt dissection. The levels of CBD in the epidermis, dermis, and receptor fluid samples were then analyzed using a bioanalytical method with LC-MS/MS detection.

Q: Which “skin permeation through to the receptor phase, % of applied dose” value does the source give for C=C(C)C1CCC(C)=CC1c1c(O)cc(CCCCC)cc1O (centres unmarked) [CBD, 2-[3-methyl-6-(1-methylethenyl)-2-cyclohexen-1-yl]-5-pentyl-1,3-benzenediol] here?
A: less than 0.081%

Q: What about the “skin permeation, amount in the receptor phase” value of the same compound?
A: < 278 ng/cm^2
